{"source": "patent US9757375B2", "about": "“Compounds that inhibit human DNA ligases and methods of treating cancer” (University of Maryland, Baltimore, priority 2007, dated 2017)", "key": {"[1]": {"target": "T1, T4 DNA ligase (Enterobacteria phage T4, UniProt P00970)", "T1 construct": "purchased NEB", "T1 sequence (P00970 1-487)": "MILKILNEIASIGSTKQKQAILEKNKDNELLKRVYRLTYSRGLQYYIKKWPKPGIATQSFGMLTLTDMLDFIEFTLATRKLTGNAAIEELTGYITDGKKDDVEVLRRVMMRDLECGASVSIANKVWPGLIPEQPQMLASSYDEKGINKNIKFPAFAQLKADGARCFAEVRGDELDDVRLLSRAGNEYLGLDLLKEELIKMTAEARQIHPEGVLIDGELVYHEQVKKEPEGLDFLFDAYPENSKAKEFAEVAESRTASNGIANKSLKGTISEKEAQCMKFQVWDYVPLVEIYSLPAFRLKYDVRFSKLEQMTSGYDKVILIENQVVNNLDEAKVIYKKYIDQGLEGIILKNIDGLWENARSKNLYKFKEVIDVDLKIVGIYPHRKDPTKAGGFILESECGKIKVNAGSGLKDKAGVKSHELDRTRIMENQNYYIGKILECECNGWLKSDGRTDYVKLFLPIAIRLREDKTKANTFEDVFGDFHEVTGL", "experiment": "High-throughput fluorescence-based DNA joining assay, non-specific inhibitor control", "type": "biochemical, bacteriophage T4", "settings": "in vitro screen, 100 μmol/L", "in_short": "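This counter-screen used a FRET-based DNA joining assay. Duplicate reactions held 10 pmol nicked DNA substrate and 10 units T4 DNA ligase, with or without 100 μmol/L compound. T4 ligase lacks the DNA-binding domain targeted in silico, so compounds inhibiting it were flagged as non-specific, likely DNA-binding.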"}, "[2]": {"target": "T2, hLigI (Homo sapiens, UniProt P18858)", "T2 construct": "made in house", "T2 sequence (P18858 whole entry)": "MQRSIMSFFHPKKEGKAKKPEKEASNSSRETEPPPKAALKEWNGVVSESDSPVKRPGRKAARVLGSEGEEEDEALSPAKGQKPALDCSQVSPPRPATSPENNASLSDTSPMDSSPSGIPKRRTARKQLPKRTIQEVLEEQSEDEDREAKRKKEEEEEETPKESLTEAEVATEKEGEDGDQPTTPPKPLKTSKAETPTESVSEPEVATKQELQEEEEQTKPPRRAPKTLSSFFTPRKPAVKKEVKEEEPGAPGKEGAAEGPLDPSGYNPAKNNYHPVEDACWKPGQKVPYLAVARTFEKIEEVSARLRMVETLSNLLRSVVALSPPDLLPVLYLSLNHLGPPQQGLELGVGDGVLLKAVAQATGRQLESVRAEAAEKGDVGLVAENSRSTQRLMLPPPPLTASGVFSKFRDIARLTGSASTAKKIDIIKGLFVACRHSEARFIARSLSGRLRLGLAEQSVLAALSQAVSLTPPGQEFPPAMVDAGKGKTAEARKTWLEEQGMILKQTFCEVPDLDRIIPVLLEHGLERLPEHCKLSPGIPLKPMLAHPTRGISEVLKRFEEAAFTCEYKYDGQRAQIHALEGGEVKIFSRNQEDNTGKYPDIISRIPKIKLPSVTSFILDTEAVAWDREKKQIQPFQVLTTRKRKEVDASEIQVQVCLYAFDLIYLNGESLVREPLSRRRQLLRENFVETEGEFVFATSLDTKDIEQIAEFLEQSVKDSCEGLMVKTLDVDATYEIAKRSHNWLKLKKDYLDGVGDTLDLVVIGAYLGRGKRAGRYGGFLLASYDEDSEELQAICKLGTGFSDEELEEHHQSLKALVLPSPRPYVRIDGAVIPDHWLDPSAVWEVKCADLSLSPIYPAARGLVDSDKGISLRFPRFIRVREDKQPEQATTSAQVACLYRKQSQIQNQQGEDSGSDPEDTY", "experiment": "High-throughput fluorescence-based DNA joining (ligation) assay", "type": "biochemical", "settings": "in vitro screen, 100 μmol/L; the 15 hLigI inhibitors inhibited by >50%", "in_short": "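Nicked DNA substrate (10 pmol) was incubated with 0.25 pmol hLigI, with or without 100 μmol/L test compound, in duplicate. Afterwards the DNA was denatured and renatured with a 20-fold excess of unmodified oligonucleotide. Ligation forms an AF488/BHQ1 hairpin, read as reduced fluorescence at 518 nm.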"}, "[3]": {"tested_on": "HCT116 cells", "experiment": "Cell proliferation screen (SYBR Green, Biomek FX)", "type": "cell-based, human", "settings": "50 μM; percentage of values obtained with DMSO alone", "protocol": "The ability of the compounds identified by CADD to inhibit proliferation of normal mammary epithelial MCF10A cells and colon carcinoma HCT116 cells was determined using a Biomek FX Laboratory Automation Workstation (Beckman Coulter, Inc., Fullerton, Calif.). On day 0, 20 μl of complete medium containing the appropriate number of cells (150-300) was plated per well of a 384-well tissue plate (Fisher Scientific, Hampton, N.H.) and incubated overnight at 37° C. with 5% CO2 and 90% humidity. Next day, day 1, compounds were prepared by serial dilution with complete medium to yield the concentration 100 μM, and 20 μl was added to each well containing 20 μl of medium and cells yielding the final concentration 50 μM in 40 μl volume. Plates were incubated for additional 3 days (days-2-5) until control cells (0.5% DMSO) reached ˜70-80% confluency. On day 6, 40 μl of lysis/detection solution containing 1.2% Igepal CA-630 (Sigma) and a 1:1000 dilution of SYBR Green I nucleic acid stain (Molecular Probes, Eugene, Oreg.) was added to each well. Following an overnight incubation at 37° C., total fluorescence was measured using a Fluorostar Galaxy plate reader with a 485 nm excitation filter and 520 nm emission filter set (BMG Labtech, Inc., Durham, N.C.). Data was exported to a custom program that determined growth inhibition by dividing each individual fluorescence value by the average of fluorescence values obtained with cells treated with DMSO alone.\nThe 192 human DNA ligase inhibitors were screened in parallel for effects on proliferation and the ability to potentiate the effects of several DNA damaging agents using two cell human lines, a colon cancer line HCT116 and a normal breast epithelial cell line MCF10A using a Biomek FX Laboratory Automation Workstation as described (23). The DNA damaging agents used, methyl methanesulfonate (MMS), camptothecin, cis-platinum, 3 aminobenzamide and ionizing radiation, are representatives of classes of agents used to treat cancer. Briefly, HCT116 and MCF10A cells were plated in 96 well plates such that the cultures were about 80% confluent after 5 days incubation. Compounds were added to the cultures at either 15 μM or 50 μM 1 day after plating. After incubation for 3 days, cell lysed in a solution containing 1.2% Igepal CA-630 and SYBR green that stains DNA (1:1000, Molecular Probes, Eugene, Oreg.). Subsequently, fluorescence was measured per well. The studies with DNA damaging agents were performed as follows. […] For ionizing radiation, cells were pre-incubated with the compounds at 50 μM for 1 hour prior to exposure to 2 gray of ionizing radiation. Cultures were incubated for 3 days and then treated as above."}, "[4]": {"tested_on": "DNA", "experiment": "DNA binding by displacement of ethidium bromide from DNA", "settings": "EtBr replacement assay; 192 at 0, 50, 100 μM", "protocol": "Candidate ligase inhibitors identified by CADD were assayed for their ability to inhibit hLigI and T4 DNA ligase using a high-throughput, fluorescence energy transfer-based DNA joining assay (22). Duplicate reactions (30 μL) containing 10 pmol of nicked DNA substrate and either 0.25 pmol of hLigI or 10 units of T4 DNA ligase were incubated in the presence or absence of 100 μmol/L of the putative inhibitor. DNA binding by the candidate DNA ligase inhibitors was measured by displacement of ethidium bromide from DNA as previously described (30)."}}, "note": "“Also recorded” adds a separate entry of the source."}
{"smiles": "O=S(=O)(O)N=Nc1ccc2c(c1)[nH]c1ccccc12", "note": "[Compound 192]", "values": [{"measurement": "inhibition of T4 DNA ligase, in words", "setting": "[1]", "result": "inhibits both hLigI and T4 DNA ligase"}, {"measurement": "inhibition of hLigI (DNA ligase I), in words", "setting": "[2]", "result": "inhibited hLigI; also recorded: inhibits both hLigI and T4 DNA ligase"}, {"measurement": "Growth_Inh % (50 μM) HCT116", "setting": "[3]", "result": 70, "unit": "%"}, {"measurement": "DNA binding of compound (effect on DNA binding by ethidium bromide)", "setting": "[4]", "result": "reduced DNA binding of the DNA intercalating agent ethidium bromide; also recorded: EtBr is replaced"}]}
